Source: patent US20090098066A1, “Substituted bicyclo [2.2.2] oct/5-ene compounds and their use as cooling agents” (priority 2005, published 2009)

Tests used:
panelists = experiment: Cooling intensity: panelists taste aqueous solutions versus menthol at 2 ppm; type: in vivo; conditions: aqueous solution with cooling intensity similar or slightly higher than a solution of menthol at 2 ppm
panelist [1] = experiment: Application in chewing gum, gum stick chewed by a panelist; type: in vivo; conditions: chewing gum with 0.10 g compound in about 100 g gum, with peppermint oil; chewed for 15 minutes
Experimental: All the ingredients are mixed in the pre-warmed gum base. The mixture is spread in thick films, cooled down and cut in sticks. A gum stick is chewed by a panelist for 15 minutes. […] No off-note was observed.

panelist [2] = experiment: Application in beverage (clear lemon/lime soda), tasted by a panelist; type: in vivo; conditions: 1.2 mL of a 0.5% ethanolic solution in a 355 mL can of clear lemon/lime soda
Experimental: 1.2 mL of a 0.5% ethanolic solution of 1-isopropyl-4-methyl-bicyclo[2.2.2]oct-5-ene-2,3-dicarbinol is added in a 355 mL (12 fl oz.) can of clear lemon/lime soda.

panelist [3] = conditions: general statement, not tested here; cited from earlier work

1-Isopropyl-4-methyl-bicyclo[2.2.2]oct-5-ene-2-carboxylic acid and 1-isopropyl-4-methyl-bicyclo[2.2.2]oct-5-ene-3-carboxylic acid [Example 2]
Concentration (panelists): 2 ppm

CC(C)C12C=CC(C)(CC1)C(CO)C2CO (stereo not drawn) [Example 1, 1-Isopropyl-4-methyl-bicyclo[2.2.2]oct-5-ene-2,3-dicarbinol]
cooling sensation (panelist [1]): immediate cooling sensation is felt in all areas of the mouth
cooling sensation (panelist [2]): immediate cooling sensation in the mouth
throat burning (panelist [2]): none of the throat burning
Concentration (panelists): 2 ppm

CCNC(=O)C1CC2(C)C=CC1(C(C)C)CC2 (stereo not drawn) [Example 4, N-ethyl 1-Isopropyl-4-methyl-bicyclo[2.2.2]oct-5-ene-2-carboxamide]
Concentration (panelists): 3 ppm

CC1=CC2C(O)CC1CC2C(C)C (stereo not drawn) [Example 6, 7-isopropyl-5-methyl-bicyclo[2.2.2]oct-5-en-2-ol]
Concentration (panelists): 5 ppm

CCNC(=O)C1CC(C)CCC1C(C)C (stereo not drawn) [WS-3, N-ethyl p-menthanecarboxamide, reference compound]
throat burning (stated as known characteristic) (panelist [3]): throat burning that is characteristic
Concentration (panelists): 1.5 ppm
